Results taken from patent publication US20070232657A1, “NOVEL COMPOUNDS” (GLAXO GROUP LIMITED, priority 2006, published 2007).

What was measured:
[1] = tested on: longitudinal muscle strips from the rat gastric forestomach; assay: Rat isolated forestomach assay (EFS-evoked contractions)
Protocol: Rat Isolated Forestomach Assay
Longitudinal muscle strips with mucosa partially removed were,obtained from the rat gastric forestomach, and suspended under an initial “load” of 1 g for isometric recording between two platinum ring electrodes, in 5 or 10 ml tissue baths containing Krebs solution bubbled with 5% CO2/95% O2 and maintained at 37° C. Following an equilibration period of 30 min, during which time the tissues were flushed every 15 minutes with fresh Krebs solution, tissues were stimulated with electrical field stimulation (EFS) [50V for 10 ml bath, 25V for 5 ml bath, at 2.5 Hz 0.5 ms pulse duration, for 10 s, every 1 min]. The tissues were left stimulating for at least 30 min. After obtaining consistent responses to EFS, the test compound was added to the bathing solution, each dose left in contact for at least 10 minutes. The % potentiation of contractions to EFS were measured as the area of 4 maximum EFS contractions after addition of compound relative to the area of 4 maximum EFS contractions before addition of the lowest concentration of compound. Data are expressed as means standard error of the mean; n-values are per animal used.

5HT2b = 5HT2b (Homo sapiens, UniProt P41595); assay: 5HT2b antagonist activity (no method given)
human 5-HT4a receptor [2] = target: T1, human 5-HT4a receptor (Homo sapiens, UniProt Q13639); assay: Mammalian functional 5-HT4a agonist assay (HEK-293-MSR-II cells, FLIPR); type: cell-based; design: expressed in transfected cells; host or cells: HEK-293-MSR-II cells transduced with BacMam viruses
Protocol: Mammalian Functional 5-HT4a Agonist Assay
Human embryonic kidney cells stably expressing the human macrophage scavenger receptor type II (HEK-293-MSR-II cells) were established in-house (Lysko PG et al., J Pharmacol Exp Ther. 289(3):1277-85). These cells were grown in humidified conditions in Minimum Essential Medium containing 10% fetal calf serum (FCS), 1× non-essential amino acids, 2 mM L-glutamine and 0.4 mg/ml geneticin at 37° C./5% CO2.
BacMam plasmid constructs for the production of viruses for expression in mammalian cells were generated as described (Condreay J P et al., Proc. Natl. Acad. Sci. 96:127-132, Ames R et al., Receptors Channels 10(3-4):117-24). […]
The next day 50 μl Fluo4am dye (at 6 μM in Tyrodes buffer containing 1.5 mM calcium chloride and 2.5mM probenicid) was added to each well and incubated at 37° C./5% CO2 for one hour. […] A Fluorimetric Imaging Plate Reader (FLIPR) was used to add the compounds to the cells (50 μl per well) and to determine peak fluorescence emitted per well over the whole assay period.

human 5-HT4a receptor [3] = target: T1, human 5-HT4a receptor; assay: Yeast functional 5-HT4a agonist assay; type: cell-based; design: expressed in transfected cells; host or cells: Saccharomyces cerevisiae strain MMY23 (expression cassette integrated at the ura3 locus); details: n=9
Source text: Yeast Functional 5-HT4a Agonist Assay
Yeast (Saccharomyces cerevisiae) cells expressing the human 5-HT4a receptor were generated by integration of an expression cassette into the ura3 chromosomal locus of yeast strain MMY23. This cassette consisted of DNA sequence encoding the human 5-HT4a receptor flanked by the yeast glyceraldehyde-3-phosphate dehydrogenase (GPD) promoter to the 5′ end of 5-HT4a and a yeast transcriptional terminator sequence to the 3′ end of 5-HT4a. MMY23 expresses a yeast/mammalian chimeric G-protein alpha subunit in which the C-terminal 5 amino acids of Gpa1 are replaced with the C-terminal 5 amino acids of human Gil (as described in Brown et al. (2000), Yeast 16:11-22). Cells were grown at 30° C. in liquid Synthetic Complete (SC) yeast media (Guthrie and Fink (1991), Methods in Enzymology, Vol.194) lacking uracil, tryptophan, adenine and leucine to late logarithmic phase (approximately 6 OD600/ml).
Agonists were prepared as 10 mM stocks in DMSO. EC50 values (the concentration required to produce 50% maximal response) were estimated using serial dilutions of between 3- and 5-fold (BiomekFX, Beckman) into DMSO. pEC50 corresponds to negative log10 of molar EC50. […] After incubation at 30° C. for 24 hours, fluorescence resulting from degradation of FDGlu to fluorescein due to exoglucanase, an endogenous yeast enzyme produced during agonist-stimulated cell growth, was determined (excitation wavelength: 485 nm; emission wavelength: 535 nm) using a Spectrofluor (Tecan) or similar microtitre plate reader. Fluorescence was plotted against compound concentration and iteratively curve fitted using a four parameter fit to generate a concentration effect value. […]
Where Max[compound X] and Min[compound X] are the fitted maximum and minimum respectively from the concentration effect curve for compound X, and Max[5-HT] and Min[5-HT] are the fitted maximum and minimum respectively from the concentration effect curve for 5-hydroxytryptamine. Equieffective molar ratio (EMR) values were calculated from the equation: EMR=EC50 [compound X]/EC50 [5-HT] […]

T1 sequence (Q13639 1-387 isoform Q13639-2): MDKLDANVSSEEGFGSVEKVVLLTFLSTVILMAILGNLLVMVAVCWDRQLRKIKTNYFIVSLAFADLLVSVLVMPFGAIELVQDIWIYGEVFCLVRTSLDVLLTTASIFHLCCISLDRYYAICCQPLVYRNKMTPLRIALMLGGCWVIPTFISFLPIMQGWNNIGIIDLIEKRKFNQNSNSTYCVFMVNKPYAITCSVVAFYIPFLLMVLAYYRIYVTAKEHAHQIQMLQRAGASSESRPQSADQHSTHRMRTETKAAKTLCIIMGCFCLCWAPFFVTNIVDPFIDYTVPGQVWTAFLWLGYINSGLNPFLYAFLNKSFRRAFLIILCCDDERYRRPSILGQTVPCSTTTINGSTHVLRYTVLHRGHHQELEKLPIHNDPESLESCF
5HT2b, sequence (P41595 whole entry, species assumed): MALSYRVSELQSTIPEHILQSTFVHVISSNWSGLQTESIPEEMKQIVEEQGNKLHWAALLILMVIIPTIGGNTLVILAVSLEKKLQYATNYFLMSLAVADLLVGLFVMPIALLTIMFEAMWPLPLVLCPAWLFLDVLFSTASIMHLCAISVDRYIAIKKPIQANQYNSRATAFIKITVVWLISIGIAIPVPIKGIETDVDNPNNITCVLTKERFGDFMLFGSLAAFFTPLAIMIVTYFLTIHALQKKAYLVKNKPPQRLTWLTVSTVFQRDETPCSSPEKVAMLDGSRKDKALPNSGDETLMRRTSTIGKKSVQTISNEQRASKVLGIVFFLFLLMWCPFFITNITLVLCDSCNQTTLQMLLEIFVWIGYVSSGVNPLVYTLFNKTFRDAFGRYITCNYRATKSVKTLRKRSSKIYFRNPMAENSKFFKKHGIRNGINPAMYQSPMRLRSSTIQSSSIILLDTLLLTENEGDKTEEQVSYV

5HT2b antagonist activity (5HT2b)	EC50 (human 5-HT4a receptor [2]; HEK-293-MSR-II cells, BacMam 5-HT4a + Gα16, n=12, read-out: mean pEC50 (converted))	mean efficacy (human 5-HT4a receptor [2]; relative to maximal effect of 5-HT, n=12)	EMR (equieffective molar ratio, EC50 compound/EC50 5-HT) (human 5-HT4a receptor [3]; relative to 5-HT)	Emax (human 5-HT4a receptor [3]; relative to 5-hydroxytryptamine, read-out: Mean efficacy (Emax relative to 5-HT))	EC50 (human 5-HT4a receptor [3]; yeast cells expressing human 5-HT4a, read-out: Mean pEC50 (converted))	SMILES	gastroprokinetic activity ([1]; in vitro, rat forestomach assay)	% potentiation of contractions to EFS, Mean ([1]; 1 nM E1, n=5)	% potentiation of contractions to EFS, Mean ([1]; 10 nM E1, n=5)	% potentiation of contractions to EFS, Mean ([1]; 100 nM E1, n=5)	% potentiation of contractions to EFS, Mean ([1]; 1 μM E1, n=5)	% potentiation of contractions to EFS, Mean ([1]; 10 μM E1, n=5)
exhibit 5HT2b antagonist activity						Nc1c(Br)cc(C(=O)NCC2CCN(CC3CCOCC3)CC2)c2c1CCCO2 [(A), 5-amino-6-bromo-N-{[1-(tetrahydro-2H-pyran-4-ylmethyl)-4-piperidinyl]methyl}-3,4-dihydro-2H-chromene-8-carboxamide]	exhibits gastroprokinetic activity					
	2.29 nM	70%	0.281	94%	0.501 nM	Cl.Nc1c(Br)cc(C(=O)NCC2CCN(CC3CCOCC3)CC2)c2c1CCCO2 [Example E1, 5-Amino-6-bromo-N-{[1-(tetrahydro-2H-pyran-4-ylmethyl)-4-piperidinyl]methyl}-3,4-dihydro-2H-chromene-8-carboxamide hydrochloride]		12.89%	50.62%	89.57%	115.46%	181.32%
